Experimental data from US11591365B2, “BCL9 peptides and variants thereof” (WntRx Pharmaceuticals Inc., priority 2017, dated 2023).

Key:
Colo320DM = Colo320DM cell viability; format: cell-based, human
Description: In some embodiments, a polypeptide described herein inhibits binding of BLC9 to β-catenin when assessed in a cell-viability assay. In some embodiments, the cell-viability assay is a CellTiterGlo luminescent assay, wherein the viability of cells is quantitatively measured. Various cell lines, transformed cell lines or primary cells derived from a healthy subject or subject suffering from a disease can be used in this assay.

β-catenin [1] = target: T1, β-catenin (Homo sapiens, UniProt P35222); assay: kd(1/s)
T1 sequence (P35222 2-781 limits assumed): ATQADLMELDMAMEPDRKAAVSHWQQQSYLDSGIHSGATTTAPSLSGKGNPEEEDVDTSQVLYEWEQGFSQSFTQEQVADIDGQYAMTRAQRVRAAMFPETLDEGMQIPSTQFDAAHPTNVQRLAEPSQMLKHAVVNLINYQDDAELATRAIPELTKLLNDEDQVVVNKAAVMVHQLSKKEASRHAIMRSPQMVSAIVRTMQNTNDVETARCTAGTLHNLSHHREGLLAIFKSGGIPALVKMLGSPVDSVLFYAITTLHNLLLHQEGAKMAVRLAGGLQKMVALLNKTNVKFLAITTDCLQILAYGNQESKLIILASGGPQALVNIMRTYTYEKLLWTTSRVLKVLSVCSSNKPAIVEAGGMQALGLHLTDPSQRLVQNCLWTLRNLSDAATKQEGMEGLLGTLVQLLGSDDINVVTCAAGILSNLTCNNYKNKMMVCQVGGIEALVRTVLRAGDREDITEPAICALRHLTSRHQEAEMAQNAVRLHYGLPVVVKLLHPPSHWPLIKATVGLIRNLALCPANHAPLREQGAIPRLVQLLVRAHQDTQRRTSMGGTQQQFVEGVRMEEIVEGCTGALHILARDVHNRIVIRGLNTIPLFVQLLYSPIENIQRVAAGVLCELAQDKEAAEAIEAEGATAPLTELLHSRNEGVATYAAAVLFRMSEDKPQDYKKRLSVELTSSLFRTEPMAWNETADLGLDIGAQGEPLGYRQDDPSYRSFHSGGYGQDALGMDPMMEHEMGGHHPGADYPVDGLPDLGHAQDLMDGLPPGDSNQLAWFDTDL
Description: (§1) Table printed on a drawing sheet, FIG. 1
Head of the field: kd(1/s)
(§2) First copying reader's note: Kinetic binding constants printed under a sensorgram plot (Biacore assay of β-catenin binding according to the description).

LEF-TCF-bla HCT116 cells = assay: Wnt reporter assay: Wnt/Beta-Catenin-LEF-TCF-bla HCT116 inhibitor screen, constitutively activated; format: cell-based; conditions: 5 hours incubation with compound
Description: In various embodiments, a polypeptide described herein inhibits binding of BCL9 to β-catenin when assessed in a Wnt transcription assay. In some embodiments, the Wnt transcription assay is a cell-based assay. In some embodiments, the cell-based Wnt transcription assay is a GeneBLAzer® beta-lactamase (bla) reporter assay. Various cell lines, transformed cell lines or primary cells derived from a healthy subject or subject suffering from a disease can be used in this assay. A cell line known to be dependent on canonical Wnt/β-catenin signaling for its survival may also be used. In some embodiments, CellSensor™ LEF/TCF-bla HCT-116 cells are used in this reporter assay. These cells contain a beta-lactamase (BLA) reporter gene under the control of a 0-catenin/LEF/TCF response element stably integrated into HCT-116 cells. As the cells constitutively express beta-lactamase, adding a polypeptide that inhibits binding of BCL9 to β-catenin in this assay leads to reduced production of beta-lactamase. The efficiency of the polypeptide in suppressing Wnt transcription can therefore be quantitatively calculated in this assay. In some embodiments, a polypeptide described herein suppresses the Wnt transcription as measured in a GeneBLAzer® beta-lactamase (bla) reporter assay, which is indicative of the ability of the polypeptide to inhibit binding of BCL9 to β-catenin.
Wnt/Beta-Catenin-LEF-TCF-bla HCT116-Inhibitor Screen, Constitutively Activated. LEF-TCF-bla HCT116 cells are thawed and prepared as described above for the Activator Screen. 32 μL of cell suspension is added to each well of a 384-well Poly-D-Lysine assay plate. Cells in Assay Media are incubated for 16-24 hours in the plate at 37° C./5% CO2 in a humidified incubator. 4 μL of a 10× serial dilution of ICG-001 (control inhibitor starting concentration, 25,000 nM) or compounds are added to appropriate wells of the plate. 4 μL of Assay Media is added to all wells to bring the final assay volume to 40 μL. The plate is incubated for 5 hours at 37° C./5% CO2 in a humidified incubator. 8 μL of 1 μM Substrate Loading Solution is added to each well and the plate is incubated for 2 hours at room temperature. The plate is read on a fluorescence plate reader.

β-catenin [2] = target: T1, β-catenin; assay: KD(nM)
Description: as §1
Head of the field: KD(nM)
as §2

β-catenin [3] = target: T1, β-catenin; assay: ka(1/Ms)
Description: as §1
Head of the field: ka(1/Ms)
as §2

- IC50 (Colo320DM): 2530 nM
- kd (β-catenin [1]): 0.009538 s⁻¹
- IC50 (LEF-TCF-bla HCT116 cells): 1540 nM
- Kd (β-catenin [2]): 28.5 nM
- ka(1/Ms) (β-catenin [3]): 3.348E + 5 1/Ms
SMILES: CC[C@H](C)[C@@H]1NC(=O)[C@@](C)(NC(=O)[C@H](CCCNC(=N)N)NC(=O)[C@H](CC(C)C)NC(=O)[C@@H](NC(=O)[C@H](CCC(N)=O)NC(=O)[C@H](CC(C)C)NC(=O)[C@H](CO)NC(=O)[C@H](CCCNC(=N)N)NC(=O)[C@H](CCC(N)=O)NC(=O)[C@H](CCCNC(=N)N)NC(=O)[C@H](Cc2c[nH]cn2)NC(C)=O)[C@@H](C)O)CCCC=CCCC[C@@](C)(C(=O)N[C@@H](CC2CCC2)C(=O)N[C@@H](Cc2ccc3ccccc3c2)C(N)=O)NC(=O)[C@H](CCCNC(=N)N)NC(=O)[C@H](CCC(N)=O)NC1=O [SEQ ID NO: 147, HRQRSLQTLRXIQRX(CBA)(2-Nal)]
